Values of other authors, collected in patent US20090269770A1, “METHODS FOR EVALUATION PROGNOSIS AND FOLLOW-UP OF DRUG TREATMENT OF PSYCHIATRIC DISEASES OR DISORDERS” (priority 2008, published 2009).

System: negative symptoms of schizophrenia
Details: non-serotonergic antidepressant add-on (Silver and Shmugliakov, 1998); cited from earlier work

CNCCCC12CCC(c3ccccc31)c1ccccc12 [maprotaline]
effect on negative symptoms: did not improve negative symptoms
